Where “and” joins values, the source holds several entries; their conditions need not be identical. Equal values may be shown once.
Columns and labels:
C57BL/6 mice = assay: 5FU chemotherapy model, hematologic recovery; type: in vivo, mouse
Method: Ten-week-old female C57BL/6 mice received a single tail vein injection of 250 mg/kg 5FU in 100 μL PBS. Two hours post 5FU injection, mice were administered daily subcutaneous injections of 5 mg/kg (100 μg per mouse) DJ001 or vehicle in a volume of 100 μL for 8 days. DJ001 injections were prepared in PBS, 50% PEG-400, and 10% DMSO. Corresponding vehicle injections contained PBS, 50% PEG-400, and 10% DMSO. Retro-orbital blood was collected on day + 8, + 11, and + 14 after 5FU treatment with capillary pipettes (Fisher Scientific). Complete blood counts were measured using a Hemavet 950 instrument (Drew Scientific).

[1] = target: T1, CD45 (Protein Tyrosine Phosphatase, receptor type C) (Homo sapiens, UniProt P08575); assay: PhosphataseProfiler screen: CD45; type: biochemical; conditions: replicates
T1 construct: purchased Eurofins Pharma Discovery Services UK
Method: (§1) Compound DJ001 was evaluated in a PhosphataseProfiler™ screen at 10 μM and 1 μM (2.7 μg/mL and 0.27 μg/mL) concentrations at Eurofins Pharma Discovery Services UK (Study number UK022-0004033) against a panel of 21 Phosphatases. In each experiment, the respective reference antagonist/agonist was tested directly with DJ001 and the data were compared with historical values determined at Eurofins. DJ001 compound inhibition was calculated as percentage inhibition of the enzymatic activity compared with control.

BCL-XL in BM KSL cells = assay: BCL-XL protein intracellular flow cytometry of BM KSL cells; type: cell-based, mouse
Method: Intracellular flow cytometric analysis was performed on irradiated (300 cGy) or non-irradiated, sorted KSL cells after treatment with 1 μg/mL DJ001 or control (equal volumes of DMSO) for 24 h. At 24 h after irradiation, cells were fixed with 4% PFA for 10 min, followed by permeabilization using 0.25% saponin in PBS. Cells were washed again and stained with antibody at the recommended concentrations for 30 min at RT. Intracellular antibodies and phospho-flow antibodies used were as follows: FITC-conjugated anti-BCL-XL (Abcam, #26148, 1:100), active RAC1-GTP antibody (NewEast Biosciences, #26903, 1:100) and anti-PAK1 (phospho S144) + PAK2 (phospho S141) + PAK3 (phospho S154) antibody (Abcam, #40795, 1:100), and FITC-conjugated goat anti-rabbit IgG H&L (Abcam, #97050, 1:200).

[2] = tested on: CDC42-GTP in BM lin− cells; assay: G-LISA activation assay: CDC42-GTP; type: cell-based, mouse; conditions: for CDC42-GTP level (G-LISA): Supplementary Figure 7b (right panel)
Method: The RAC1-GTP, RHOA-GTP, and CDC42-GTP activation levels in BM lin^− cells were measured using a colorimetric-based RAC1-, RHOA-, and CDC42 G-LISA Activation Assay Kit (Cytoskeleton, Inc.). BM cells from femurs and tibias were isolated from 12-week-old Ptprs^+/+ and Ptprs^−/− mice. Cells were then depleted of lineage-committed cells with Direct Lineage Cell Depletion Kit (Miltenyi Biotec, #130-110-470; 1:5). The BM lin^− cell fraction was then serum starved in Iscove’s modified Dulbecco’s medium (IMDM) and treated with either vehicle (equal amount of DMSO) or 1 μg/mL DJ001 for 10 min at 37 °C. After treatment, cells were washed with ice-cold PBS and then placed in lysis buffer supplemented with protease inhibitor. Lysate concentrations were measured by Pierce^TM BCA Protein Assay Kit (ThermoFisher Scientific). G-LISA was performed according to the manufacturer’s instructions. Briefly, 12.5 μg of lysates was added to a GTP-binding protein pre-coated plate and active RAC1-GTP, RHOA-GTP, or CDC42-GTP levels were measured at 490 nm using a PowerWave XS2 microplate reader (BioTek).

[3] = target: T2, LMPTP-A (Low Molecular Weight Protein Tyrosine Phosphatase A) (Homo sapiens, UniProt P24666); assay: PhosphataseProfiler screen: LMPTP-A; type: biochemical; conditions: replicates
T2 construct: purchased Eurofins Pharma Discovery Services UK
Method: as §1

BM CD34−KSL HSCs = assay: 7 day culture of non-irradiated BM CD34−KSL cells in TSF media; type: cell-based, mouse; conditions: for Supplementary Figure 3a (center panel): 7 day culture of BM CD34−KSL cells / Supplementary Figure 3a (left panel): 7 day culture of BM CD34−KSL cells / Supplementary Figure 3a (right panel): 7 day culture of BM CD34−KSL cells: replicates
Text: BM cells were first treated with ACK lysis buffer (Sigma Aldrich) and lineage-committed cells were removed using a Direct Lineage Cell Depletion Kit (Miltenyi Biotec, #130-110-470, 1:5). Lin^− cells were stained with APC-Cy7-conjugated anti-mouse Sca1 (BD Biosciences, #560654, 1:100), PE-conjugated anti-ckit (BD Biosciences, #553355, 1:100), V450 lineage cocktail (BD Biosciences, #561301, 1:10), and FITC-conjugated anti-CD34 (BD Biosciences, #553733, 1:100) antibodies. Sterile cell sorting was conducted on a BD FACS-Aria cytometer. Purified KSL cells and CD34^−c-kit^+sca-1^+Lin^− (CD34^−KSL) cells were collected into IMDM (Life Technologies) + 10% FBS + 1% penicillin–streptomycin.
CFC assays (colony-forming unit-granulocyte monocyte), burst-forming unit-erythroid, and CFU-GEMM were performed using MethoCult GF M3434 (Stemcell Technologies)[6]. For all in vitro assays, BM CD34^−KSL cells, KSL cells, and Lin^− cells were cultured in TSF media (IMDM, 10% FBS, 1% pen-strep, 20 ng/mL recombinant mouse TPO, 125 ng/mL recombinant mouse SCF, 50 ng/mL recombinant mouse Flt3 ligand). Recombinant mouse SCF, Flt3 ligand, and TPO were purchased from R&D Systems. For competitive repopulation assays, BM cells were isolated from donor 10–12-week-old female CD45.2^+ mice. Recipient 10-week-old female CD45.1^+ B6.SJL mice were irradiated with 950 cGy TBI using a Cs137 irradiator and donor BM cells were administered via tail vein injection along with a competing dose of 1 × 10^5 non-irradiated host BM cells. Multilineage donor hematopoietic cell engraftment was measured in the PB by flow cytometry.

[4] = target: T3, PTPN22 (Protein Tyrosine Phosphatase Non-Receptor Type 22) (Homo sapiens, UniProt Q9Y2R2); assay: PhosphataseProfiler screen: PTPN22; type: biochemical; conditions: replicates
T3 construct: purchased Eurofins Pharma Discovery Services UK
Method: as §1

[5] = day +8 following 250 mg/kg 5FU, 5 mg/kg DJ001 SQ daily
[6] = day +11 following 250 mg/kg 5FU, 5 mg/kg DJ001 SQ daily
[7] = day +14 following 250 mg/kg 5FU, 5 mg/kg DJ001 SQ daily

T1 sequence (P08575 26-1306, species assumed): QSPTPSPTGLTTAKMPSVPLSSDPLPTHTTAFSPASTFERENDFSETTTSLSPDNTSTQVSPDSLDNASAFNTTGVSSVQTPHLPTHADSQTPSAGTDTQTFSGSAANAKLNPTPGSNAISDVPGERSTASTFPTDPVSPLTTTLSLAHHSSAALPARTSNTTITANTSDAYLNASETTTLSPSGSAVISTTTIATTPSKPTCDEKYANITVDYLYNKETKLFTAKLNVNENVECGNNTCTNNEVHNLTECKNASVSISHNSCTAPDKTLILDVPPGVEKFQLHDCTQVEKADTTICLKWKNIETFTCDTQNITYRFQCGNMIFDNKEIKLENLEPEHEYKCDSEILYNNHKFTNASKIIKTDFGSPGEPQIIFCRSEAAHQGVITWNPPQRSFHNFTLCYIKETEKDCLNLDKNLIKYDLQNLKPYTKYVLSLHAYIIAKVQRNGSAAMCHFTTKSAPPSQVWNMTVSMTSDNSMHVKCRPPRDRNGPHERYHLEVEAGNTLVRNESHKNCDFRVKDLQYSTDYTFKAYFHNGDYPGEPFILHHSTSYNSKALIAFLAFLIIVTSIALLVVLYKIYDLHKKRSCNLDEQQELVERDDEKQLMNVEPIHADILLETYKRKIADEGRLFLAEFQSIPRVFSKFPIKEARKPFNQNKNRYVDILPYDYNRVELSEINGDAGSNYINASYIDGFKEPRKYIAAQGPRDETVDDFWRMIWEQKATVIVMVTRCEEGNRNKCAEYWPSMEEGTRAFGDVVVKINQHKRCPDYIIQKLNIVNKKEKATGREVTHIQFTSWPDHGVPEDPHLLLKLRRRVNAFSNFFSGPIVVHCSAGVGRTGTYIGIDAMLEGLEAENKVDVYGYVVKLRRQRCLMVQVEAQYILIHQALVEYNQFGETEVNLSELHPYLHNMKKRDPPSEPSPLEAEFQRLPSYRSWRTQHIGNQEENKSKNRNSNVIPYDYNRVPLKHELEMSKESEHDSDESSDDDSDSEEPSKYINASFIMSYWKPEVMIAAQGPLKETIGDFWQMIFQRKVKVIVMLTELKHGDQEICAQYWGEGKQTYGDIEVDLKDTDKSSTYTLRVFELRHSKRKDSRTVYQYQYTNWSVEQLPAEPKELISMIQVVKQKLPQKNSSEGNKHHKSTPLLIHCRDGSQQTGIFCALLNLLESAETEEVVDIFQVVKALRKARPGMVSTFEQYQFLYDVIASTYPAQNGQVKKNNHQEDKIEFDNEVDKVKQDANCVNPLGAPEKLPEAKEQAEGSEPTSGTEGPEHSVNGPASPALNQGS
T2 sequence (P24666 whole entry, species assumed): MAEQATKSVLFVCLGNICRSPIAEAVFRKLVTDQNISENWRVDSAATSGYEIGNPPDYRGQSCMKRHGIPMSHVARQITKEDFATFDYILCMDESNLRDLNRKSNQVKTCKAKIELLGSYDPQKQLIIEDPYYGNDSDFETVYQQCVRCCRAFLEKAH
T3 sequence (Q9Y2R2 whole entry, species assumed): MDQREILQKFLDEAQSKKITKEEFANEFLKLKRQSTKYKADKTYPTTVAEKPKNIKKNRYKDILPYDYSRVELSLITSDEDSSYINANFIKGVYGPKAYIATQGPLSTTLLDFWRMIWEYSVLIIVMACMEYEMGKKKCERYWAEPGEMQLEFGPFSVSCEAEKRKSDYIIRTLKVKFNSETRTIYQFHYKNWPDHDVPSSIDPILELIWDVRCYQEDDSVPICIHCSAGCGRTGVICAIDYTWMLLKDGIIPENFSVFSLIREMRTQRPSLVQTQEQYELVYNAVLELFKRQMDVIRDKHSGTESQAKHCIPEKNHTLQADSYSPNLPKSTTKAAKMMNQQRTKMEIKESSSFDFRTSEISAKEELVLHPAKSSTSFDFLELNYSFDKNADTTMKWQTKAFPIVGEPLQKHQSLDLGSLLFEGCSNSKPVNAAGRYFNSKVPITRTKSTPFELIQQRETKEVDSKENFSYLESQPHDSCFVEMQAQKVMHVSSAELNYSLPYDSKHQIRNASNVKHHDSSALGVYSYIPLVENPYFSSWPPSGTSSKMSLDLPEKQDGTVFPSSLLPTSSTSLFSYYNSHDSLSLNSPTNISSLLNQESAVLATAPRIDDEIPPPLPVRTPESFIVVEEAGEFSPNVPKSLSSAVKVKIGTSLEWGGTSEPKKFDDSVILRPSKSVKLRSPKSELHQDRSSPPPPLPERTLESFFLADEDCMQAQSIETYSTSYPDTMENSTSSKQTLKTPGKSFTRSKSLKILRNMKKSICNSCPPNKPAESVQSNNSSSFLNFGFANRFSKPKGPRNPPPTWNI

O=C(/C=C\Nc1cccc([N+](=O)[O-])c1)c1ccccc1 [DJ001, (Z)-3-((3-nitrophenyl)amino)-1-phenylprop-2-en-1-one]
PB NEU counts per mouse (Figure 2i right panel) (C57BL/6 mice; day 0 (pre-5FU)): 0.64 and 0.92 and 0.54 and 0.52 | PB WBCs per mouse (Figure 2i left panel) (C57BL/6 mice; day 0 (pre-5FU)): 7.24 and 8.98 and 6.9 and 7.26 | PB NEU counts per mouse (Figure 2i right panel) (C57BL/6 mice; [5]): 0.01 (2×) and 0.02 (4×) and 0.03 | PB WBCs per mouse (Figure 2i left panel) (C57BL/6 mice; [5]): 0.88 and 0.82 and 0.9 and 1 and 0.86 and 0.8 and 1.44 | PB NEU counts per mouse (Figure 2i right panel) (C57BL/6 mice; [6]): 0.08 and 0.14 and 0.11 and 0.12 and 0.07 (2×) and 0.54 | PB WBCs per mouse (Figure 2i left panel) (C57BL/6 mice; [6]): 0.78 and 3.32 and 1.78 and 2.76 and 1.44 and 3.6 and 2.12 | PB WBCs and neutrophils vs 5FU control (C57BL/6 mice; day +14): significantly increased PB WBCs and neutrophils | PB NEU counts per mouse (Figure 2i right panel) (C57BL/6 mice; [7]): 4.15 and 1.27 and 0.57 and 0.4 and 0.82 and 1.88 and 2.76 | PB WBCs per mouse (Figure 2i left panel) (C57BL/6 mice; [7]): 13.36 and 5.12 and 4.72 and 9.58 and 8.92 and 11.92 and 17.98 | Supplementary Figure 1: CD45 activity ([1]; 0.27 μg/mL DJ001): 91 and 86 and 84 | Supplementary Figure 1: CD45 activity ([1]; 2.7 μg/mL DJ001): 71 and 85 and 86 | BCL-XL protein levels (BCL-XL in BM KSL cells; 300 cGy-irradiated BM KSL cells): increased | Figure 3h: BCL-XL protein in BM KSL cells (BCL-XL in BM KSL cells; irradiated cells, replicates): 17.43 and 16.61 and 16.35 and 15.49 and 16.56 and 12.16 | activation of CDC42 ([2]; BM lin− cells, 1 μg/mL DJ001, 10 min): did not alter the activation | CDC42-GTP level (G-LISA) ([2]; Ptprs+/+ cells): 0.2383 and 0.2517 and 0.2371 | CDC42-GTP level (G-LISA) ([2]; Ptprs-/- cells): 0.1634 and 0.1869 and 0.1735 | Supplementary Figure 1: LMPTP-A activity ([3]; 0.27 g/mL DJ001): 100 and 90 and 93 | Supplementary Figure 1: LMPTP-A activity ([3]; 2.7 g/mL DJ001): 78 and 84 and 89 | Supplementary Figure 3a (center panel): 7 day culture of BM CD34−KSL cells (BM CD34−KSL HSCs; 10 ng/mL): 8.03 and 6.26 and 7.07 and 7.49 | Supplementary Figure 3a (left panel): 7 day culture of BM CD34−KSL cells (BM CD34−KSL HSCs; 10 ng/mL): 107000 and 154000 and 141000 and 135000 | Supplementary Figure 3a (right panel): 7 day culture of BM CD34−KSL cells (BM CD34−KSL HSCs; 10 ng/mL): 8589 and 9633 and 9964 and 10109 | Supplementary Figure 3a (center panel): 7 day culture of BM CD34−KSL cells (BM CD34−KSL HSCs; 100 ng/mL): 15.07 and 8.84 and 9.18 and 11.37 | Supplementary Figure 3a (left panel): 7 day culture of BM CD34−KSL cells (BM CD34−KSL HSCs; 100 ng/mL): 127000 and 142000 and 174000 and 219000 | Supplementary Figure 3a (right panel): 7 day culture of BM CD34−KSL cells (BM CD34−KSL HSCs; 100 ng/mL): 19062 and 12549 and 15920 and 24836 | Supplementary Figure 3a (center panel): 7 day culture of BM CD34−KSL cells (BM CD34−KSL HSCs; 1000 ng/mL): 16.07 and 11.49 and 11 and 12.87 | Supplementary Figure 3a (left panel): 7 day culture of BM CD34−KSL cells (BM CD34−KSL HSCs; 1000 ng/mL): 131000 and 209000 and 128000 and 136000 | Supplementary Figure 3a (right panel): 7 day culture of BM CD34−KSL cells (BM CD34−KSL HSCs; 1000 ng/mL): 21058 and 24017 and 14076 and 17507 | percentages and numbers of BM KSL cells in culture vs control (BM CD34−KSL HSCs; 10–1,000 ng/mL DJ001, 7 days): increased the percentages and numbers of BM KSL cells | Supplementary Figure 1: PTPN22 activity ([4]; 2.7 μg/mL DJ001): 94 (2×) and 89 | Supplementary Figure 1: PTPN22 activity ([4]; 0.27 g/mL DJ001): 103 and 99 and 94
